The record followed here is ChEMBL document CHEMBL1201862, “PubChem BioAssay data set” (2004).

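Following 48 hours of exposure in 96-well plates, responses at five concentrations were used to interpolate endpoints linearly. GI50 = concentration required for 50% inhibition of growth.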 The source made the active and inactive calls. Rule as the data show it: active = GI50 up to about 1.1 µM and inactive = higher.

Test systems include SNB-75; IGROV-1; NCI-H522; HCT-15; SK-OV-3; UO-31; K562; PC-3; TK-10; NCI-H460; MDA-N; MDA-MB-435; HCC 2998; NCI/ADR-RES; UACC-257; SR; NCI-H23; U-251; HCT-116; EKVX.
Holding throughout (experiment): growth of human tumour cells (NCI), 48 h

Regarding `COc1ccc(-c2c(C#N)c(O)n(C3OC(CO)C(O)C(O)C3O)c(=S)c2C#N)cc1` (stereo unspecified), the GI50 was > 100 µM (inactive) with SNB-75; > 100 µM (inactive) in the experiment on IGROV-1; > 100 µM (inactive) in the experiment on NCI-H522; above 100 µM in the experiment on HCT-15; > 100 µM (inactive) in the experiment with SK-OV-3; > 100 µM (inactive) with UO-31. For the same molecule, the GI50 with K562, with PC-3, with TK-10, in the experiment with NCI-H460, in the experiment on MDA-N and with MDA-MB-435 was > 100 µM (inactive) throughout. The GI50 in the experiment with HCC 2998, with NCI/ADR-RES, in the experiment on UACC-257, in the experiment with SR and with NCI-H23 was > 100 µM (inactive) throughout.

With `O=C1N=NC(=O)N1c1cc(C(F)(F)F)cc(C(F)(F)F)c1`, the GI50 with U-251 was 3.12 µM (inactive); in the experiment with SNB-75, 2.95 µM (inactive); in the experiment on IGROV-1, 3.83 µM (inactive); in the experiment on NCI-H522, 2.07 µM (inactive); with HCT-15 it was 3.2 µM; in the experiment on HCT-116 it was 3.24 µM (inactive). Also, the GI50 with SK-OV-3 was 3.81 µM (inactive); in the experiment with UO-31, 2.44 µM (inactive); in the experiment on K562, 3.37 µM (inactive); in the experiment with PC-3, 2.65 µM (inactive); in the experiment with TK-10 it was 3.68 µM (inactive); in the experiment on NCI-H460, 3.23 µM (inactive). The GI50 with MDA-N is 4.17 µM (inactive); in the experiment on MDA-MB-435, 4.38 µM (inactive); in the experiment on HCC 2998 it was 3.45 µM (inactive); in the experiment with NCI/ADR-RES, 2.97 µM (inactive); in the experiment on EKVX, 3.24 µM (inactive); with UACC-257 it was 3.16 µM (inactive). The values for the GI50 with SR and in the experiment on NCI-H23 were 4.69 µM (inactive) and 2.35 µM (inactive), respectively.

With `Cc1cc(-c2nc3ccccc3s2)ccc1NC(=O)[C@@H](N)CCCCN`, the GI50 in the experiment on U-251 was 4.59 µM (inactive); in the experiment with SNB-75, 3.68 µM (inactive); in the experiment on IGROV-1, 1.69 µM (inactive); in the experiment on NCI-H522, 6.75 µM (inactive); with HCT-15 it was 9.27 µM; in the experiment on HCT-116, 6.22 µM (inactive). Also, the GI50 was 13.5 µM (inactive) with SK-OV-3; 6.71 µM (inactive) in the experiment on UO-31; 7.01 µM (inactive) in the experiment on K562; 14.3 µM (inactive) in the experiment with PC-3; 0.993 µM (active) in the experiment with TK-10; 2.22 µM (inactive) with NCI-H460. Moreover, the GI50 with MDA-N is 5.04 µM (inactive); with MDA-MB-435, 5.24 µM (inactive); in the experiment on HCC 2998, 6.31 µM (inactive); in the experiment with NCI/ADR-RES, 15.8 µM (inactive); in the experiment on EKVX, 12.2 µM (inactive); in the experiment on UACC-257, 18.4 µM (inactive). Further, the GI50 with SR was 3.24 µM (inactive); in the experiment on NCI-H23 it was 6.7 µM (inactive).

Regarding `C=C[C@H]1CN2CCc3c([nH]c4c([C@@H]5CCCN5C)c(O)ccc34)[C@@H]2C[C@@H]1C[C@H]1c2[nH]c3ccccc3c2CCN1C`, the GI50 was 1.38 µM (inactive) in the experiment on U-251; 1.22 µM (inactive) in the experiment with SNB-75; 1.32 µM (inactive) in the experiment on IGROV-1; 1.85 µM (inactive) in the experiment with NCI-H522; 1.28 µM with HCT-15; 0.366 µM (active) in the experiment with HCT-116. The GI50 is 1.7 µM (inactive) in the experiment on SK-OV-3; 1.63 µM (inactive) with UO-31; 0.211 µM (active) in the experiment with K562; 1.47 µM (inactive) in the experiment on PC-3; 1.57 µM (inactive) with TK-10; 1.39 µM (inactive) in the experiment on NCI-H460. The GI50 in the experiment on MDA-N is 1.67 µM (inactive); in the experiment with MDA-MB-435, 1.51 µM (inactive); in the experiment with HCC 2998 it was 1.72 µM (inactive); in the experiment with NCI/ADR-RES it was 1.85 µM (inactive); in the experiment on UACC-257, 1.91 µM (inactive); in the experiment with SR it was 0.256 µM (active). Moreover, the GI50 in the experiment on NCI-H23 is 1.82 µM (inactive).

Turning to `CCOC(=O)C(NC(=O)c1ccccc1)(Nc1ccc(Cl)cc1C(F)(F)F)C(F)(F)F` (stereo unspecified), the GI50 in the experiment with U-251 was 3.74 µM (inactive); with SNB-75 it was 2.29 µM (inactive); with IGROV-1, 4.03 µM (inactive); in the experiment with NCI-H522 it was 2.59 µM (inactive); in the experiment on HCT-116, 3.78 µM (inactive); in the experiment with SK-OV-3 it was 9.4 µM (inactive). In addition, the GI50 with UO-31 was 5.21 µM (inactive); in the experiment with K562 it was 2.47 µM (inactive); in the experiment on PC-3, 3.13 µM (inactive); with TK-10 it was 8.26 µM (inactive); with NCI-H460, > 20.5 µM (inactive); in the experiment with MDA-N, 1.51 µM (inactive). The GI50 in the experiment on MDA-MB-435 was 1.26 µM (inactive); in the experiment with HCC 2998, > 28.3 µM (inactive); in the experiment with NCI/ADR-RES, 2.76 µM (inactive); in the experiment with EKVX, 5.6 µM (inactive); in the experiment with UACC-257, 9.64 µM (inactive); with SR, 2.28 µM (inactive). Moreover, the GI50 with NCI-H23 was 4.59 µM (inactive).

As to `COc1cc(C)cc(C(=O)/C=C/c2ccccc2)c1O`, the GI50 is 17.2 µM (inactive) in the experiment with U-251; 24.5 µM (inactive) with SNB-75; 12.6 µM (inactive) in the experiment with IGROV-1; 17.9 µM (inactive) in the experiment on NCI-H522; 18.1 µM in the experiment with HCT-15; 17.7 µM (inactive) in the experiment on HCT-116. For the same molecule, the GI50 in the experiment with SK-OV-3 is 29.2 µM (inactive); in the experiment on UO-31 it was 17.8 µM (inactive); with K562, 40.6 µM (inactive); in the experiment with PC-3, 19.3 µM (inactive); in the experiment with TK-10, 18.6 µM (inactive); with NCI-H460, 20.2 µM (inactive). Further, the GI50 was 23.7 µM (inactive) with MDA-N; 26.9 µM (inactive) with MDA-MB-435; 18.8 µM (inactive) in the experiment on HCC 2998; 21.4 µM (inactive) with NCI/ADR-RES; 19.4 µM (inactive) in the experiment with EKVX; 16.7 µM (inactive) with UACC-257. The GI50 is 30.9 µM (inactive) in the experiment on SR and 16.9 µM (inactive) in the experiment on NCI-H23.

Turning to `CC1=NC(=O)C(C)(c2ccccc2)N1CCc1ccccc1` (stereo unspecified), the GI50 in the experiment on U-251 is > 100 µM (inactive); with SNB-75, 16.5 µM (inactive); with IGROV-1, 57.8 µM (inactive); in the experiment on NCI-H522, > 100 µM (inactive); in the experiment on HCT-15 it was 35.2 µM; in the experiment with HCT-116, 28 µM (inactive). For the same molecule, the GI50 is > 100 µM (inactive) with SK-OV-3; > 100 µM (inactive) in the experiment on UO-31; 34.8 µM (inactive) in the experiment with K562; 44.7 µM (inactive) in the experiment on PC-3; > 100 µM (inactive) in the experiment on TK-10; 36.3 µM (inactive) with MDA-N. Besides, the GI50 in the experiment on MDA-MB-435 was 75 µM (inactive); in the experiment on HCC 2998, 27.4 µM (inactive); with NCI/ADR-RES, 67.9 µM (inactive); with EKVX, > 100 µM (inactive); in the experiment with UACC-257, 72.9 µM (inactive); with SR, 32 µM (inactive). The GI50 in the experiment on NCI-H23 was > 100 µM (inactive).

Consider `Cc1ccc([N+](=O)[O-])c2c(NCCC[N+](C)(C)[O-])ccnc12`, for which the GI50 was 83.6 µM (inactive) in the experiment with U-251; 55.7 µM (inactive) in the experiment with SNB-75; 20.6 µM (inactive) with IGROV-1; 15 µM (inactive) with NCI-H522; above 10 µM in the experiment with HCT-15; 38.9 µM (inactive) in the experiment with HCT-116. The GI50 was 52 µM (inactive) in the experiment with SK-OV-3; 78.9 µM (inactive) with UO-31; 27.5 µM (inactive) in the experiment on K562; 50.8 µM (inactive) in the experiment on PC-3; > 100 µM (inactive) with TK-10; 21.3 µM (inactive) in the experiment with NCI-H460. For the same molecule, the GI50 in the experiment on MDA-N was > 100 µM (inactive); in the experiment with MDA-MB-435, > 100 µM (inactive); in the experiment with HCC 2998 it was 23.4 µM (inactive); in the experiment on NCI/ADR-RES, > 100 µM (inactive); in the experiment on EKVX, > 100 µM (inactive); in the experiment on UACC-257, 29.4 µM (inactive). Also, the GI50 in the experiment on SR is 48.5 µM (inactive); in the experiment on NCI-H23 it was 33.4 µM (inactive).

In the case of `CCCCCCCCCCCC[C@@H](O)[C@H]1CC[C@H]([C@H](O)CC[C@H](O)[C@@H]2CC[C@@H](CCCCCCCC3=C[C@H](C)OC3=O)O2)O1`, the GI50 is > 50 µM (inactive) with U-251; > 50 µM (inactive) in the experiment with SNB-75; > 50 µM (inactive) in the experiment with IGROV-1; 46.8 µM (inactive) in the experiment on NCI-H522; above 50 µM in the experiment on HCT-15; 5.58 µM (inactive) in the experiment with HCT-116. Also, the GI50 in the experiment on SK-OV-3 was > 50 µM (inactive); with UO-31, > 50 µM (inactive); in the experiment on PC-3, > 50 µM (inactive); in the experiment on TK-10, > 50 µM (inactive); in the experiment on NCI-H460, 2.54 µM (inactive); in the experiment with MDA-N, 6.47 µM (inactive). For the same molecule, the GI50 in the experiment on MDA-MB-435 is > 50 µM (inactive); with HCC 2998, > 50 µM (inactive); in the experiment on NCI/ADR-RES, > 50 µM (inactive); in the experiment on EKVX, > 50 µM (inactive); in the experiment with UACC-257, > 14.9 µM (inactive); with SR, 1.27 µM (inactive). In addition, the GI50 with NCI-H23 is > 18.1 µM (inactive).

As to `COc1cc(-c2oc3c(OC)cc(OC)c(O)c3c(=O)c2OC)cc(OC)c1OC`, the GI50 with U-251 is 4.65 µM (inactive); in the experiment on SNB-75 it was 1.73 µM (inactive); in the experiment with IGROV-1, 85.5 µM (inactive); with NCI-H522 it was 3.38 µM (inactive); with HCT-116 it was 4.32 µM (inactive); with SK-OV-3, 3.29 µM (inactive). Moreover, the GI50 in the experiment with UO-31 is 33 µM (inactive); in the experiment on K562, > 100 µM (inactive); in the experiment on PC-3, 9.57 µM (inactive); with TK-10, > 100 µM (inactive); with NCI-H460, 4.47 µM (inactive); with MDA-N, > 100 µM (inactive). Besides, the GI50 with MDA-MB-435 was > 100 µM (inactive); with HCC 2998 it was > 100 µM (inactive); in the experiment on NCI/ADR-RES it was 5.46 µM (inactive); in the experiment on EKVX it was > 100 µM (inactive); with SR, > 100 µM (inactive); in the experiment with NCI-H23, 36.3 µM (inactive).
